Experimental data: patent US4349546A, “D-Allose derivative and preparation method therefor” (Wakamoto Pharmaceutical Co., Ltd., priority 1980, dated 1982)

What was measured:
[1] = system: leukemia L-1210, P 388, Lewis lung carcinoma, β-16 melanoma and mouse lung autotumor; experiment: Antitumor effect, overall statement of the patent; format: in vivo, warm-blooded animals; mice
Leukemia P-388 cells = experiment: Antileukemia test, P-388 (Test Example 2); format: in vivo, CDF mice; conditions: for ILS (rate of apothanasia): 24 hours after implantation; for Number of survivals: 60 days
Procedure: (1) Test animals: The same animals as in Test 1.
(§1) 1×10^5 Leukemia P-388 cells per mouse were implanted into the abdomen of each mouse. After 24 hours, a given amount of CNUA dissolved in isotonic sodium chloride solution was administered to the mice. The rate of apothanasia (%) and number of survivals after 60 days were examined.

Toxicity tests (LD50) = conditions: mouse, in vivo, DDY male mice
Procedure: CNUA dissolved in isotonic sodium chloride solution was given to DDY male mice each weighing 20 to 22.5 g by intraperitoneal administration, intravenous administration and peroral administration, and LD50 values were determined.

β-16 melanoma cells = experiment: Test of therapeutical effects on melanoma (Test Example 4); format: in vivo, BDF mice; conditions: for Number of survivals: 60 days
Leukemia L-1210 cells = experiment: Antileukemia test, L-1210 (Test Example 1); format: in vivo, CDF mice; conditions: for Number of survivals: 60 days
Procedure: (1) Test animals: About 6-week old CDF mice each weighing 22±1 g; one group comprising 7 male mice.
as §1, with “L-1210” for “P-388”, “mice in through three different methods, i.e. intraperitoneal administration, intravenous administration and peroral administration.” for “mice.”, “apothanacia” for “apothanasia”
^a Symbols in the column of "Method of Administration" have the
ip: Intraperitoneal administration,
iv: Intravenous administration,
po: Peroral administration,
day 1: A given amount of CNUA was administered once 24 hours after the
day 1-3: Continuous administration once a day for three days subsequently
^b Rate of apothanasia % (ILS) was calculated according to the
^c Number of survivals means the number of mice which survived for 60
days or longer in the group consisting of the 7 mice tested.

[2] = system: Lewis lung carcinoma cells; experiment: Test of therapeutical effects on Lewis lung carcinoma (Test Example 3); format: in vivo, BDF mice; conditions: for Number of survivals: 60 days
Excerpt: (1) Test animals: About 6-week old BDF mice each weighing 22±1 g; one group comprising 7 male mice.
5×10^5 Lewis lung carcinoma cells per mouse were implanted under the skin of each mouse. […] The rate of apothanasia and number of survivals after 60 days were examined.
*"day 1-9" in the column of "Method of Administration" indicates
continuous administration once/day for 9 days subsequently to "day 1".

[3] = system: Peripheral leukocyte count; experiment: Effects on peripheral leukocyte count (Test Example 6); format: in vivo, DDY mice
Excerpt: Comparison of effects of CNUA and Me-CCNU* on peripheral leukocyte count:
Six-week old DDY mice each weighing 22±1 g; one group comprising 5 male mice.
CNUA and Me-CCNU were given intraperitoneally on the first day. The, blood was drawn from a tail vein at time intervals to determine the leukocyte count. The samples were used in the form of a solution in an isotonic sodium chloride solution.

O=NN(CCCl)C(=O)N[C@@H]1[C@H](O)[C@@H](CO)OC(O)[C@@H]1O (stereo partly drawn) [CNUA, 3-[3-(2-chloroethyl)-3-nitrosoureido]-3-deoxy-D-allose]
antitumor effects [1]: powerful antitumor effects
ILS (rate of apothanasia) (Leukemia P-388 cells; 3.75 mg/kg/day): 50%
ILS (rate of apothanasia) (Leukemia P-388 cells; 7.5 mg/kg/day): 90%
ILS (rate of apothanasia) (Leukemia P-388 cells; 15 mg/kg/day): 240%
ILS (rate of apothanasia) (Leukemia P-388 cells; 30 mg/kg/day): > 500%
ILS (rate of apothanasia) (Leukemia P-388 cells; 45 mg/kg/day): > 500%
ILS (rate of apothanasia) (Leukemia P-388 cells; 60 mg/kg/day): > 500%
Number of survivals (Leukemia P-388 cells; 3.75 mg/kg/day): 0/7
Number of survivals (Leukemia P-388 cells; 7.5 mg/kg/day): 0/7
Number of survivals (Leukemia P-388 cells; 15 mg/kg/day): 3/7
Number of survivals (Leukemia P-388 cells; 30 mg/kg/day): 5/7
Number of survivals (Leukemia P-388 cells; 45 mg/kg/day): 7/7
Number of survivals (Leukemia P-388 cells; 60 mg/kg/day): 6/7
LD50 (Toxicity tests (LD50); ip): 65.5 mg/kg
LD50 (Toxicity tests (LD50); iv): 80 mg/kg
LD50 (Toxicity tests (LD50); po): 550 mg/kg
ILS (rate of apothanasia) (β-16 melanoma cells; 1.12 mg/kg/day, day 1-9, ip): 10%
ILS (rate of apothanasia) (β-16 melanoma cells; 2.23 mg/kg/day, day 1-9, ip): 25%
ILS (rate of apothanasia) (β-16 melanoma cells; 4.45 mg/kg/day, day 1-9, ip): 30%
ILS (rate of apothanasia) (β-16 melanoma cells; 5 mg/kg/day, day 1, ip): 0%
ILS (rate of apothanasia) (β-16 melanoma cells; 6.67 mg/kg/day, day 1-9, ip): 35%
ILS (rate of apothanasia) (β-16 melanoma cells; 10 mg/kg/day, day 1, ip): 16%
ILS (rate of apothanasia) (β-16 melanoma cells; 20 mg/kg/day, day 1, ip): 48%
ILS (rate of apothanasia) (β-16 melanoma cells; 20 mg/kg/day, day 1, iv): 65%
ILS (rate of apothanasia) (β-16 melanoma cells; 40 mg/kg/day, day 1, ip): 60%
ILS (rate of apothanasia) (β-16 melanoma cells; 40 mg/kg/day, day 1, iv): 155%
ILS (rate of apothanasia) (β-16 melanoma cells; 60 mg/kg/day, day 1, iv): 35%
Number of survivals (β-16 melanoma cells; 1.12 mg/kg/day, day 1-9, ip): 0/7
Number of survivals (β-16 melanoma cells; 2.23 mg/kg/day, day 1-9, ip): 0/7
Number of survivals (β-16 melanoma cells; 4.45 mg/kg/day, day 1-9, ip): 0/7
Number of survivals (β-16 melanoma cells; 5 mg/kg/day, day 1, ip): 0/7
Number of survivals (β-16 melanoma cells; 6.67 mg/kg/day, day 1-9, ip): 0/7
Number of survivals (β-16 melanoma cells; 10 mg/kg/day, day 1, ip): 0/7
Number of survivals (β-16 melanoma cells; 20 mg/kg/day, day 1, ip): 1/7
Number of survivals (β-16 melanoma cells; 20 mg/kg/day, day 1, iv): 1/7
Number of survivals (β-16 melanoma cells; 40 mg/kg/day, day 1, ip): 2/7
Number of survivals (β-16 melanoma cells; 40 mg/kg/day, day 1, iv): 1/7
Number of survivals (β-16 melanoma cells; 60 mg/kg/day, day 1, iv): 0/7
ILS (rate of apothanasia) (Leukemia L-1210 cells; 5 mg/kg/day, iv, day 1): 29%
ILS (rate of apothanasia) (Leukemia L-1210 cells; 10 mg/kg/day, iv, day 1): 43%
ILS (rate of apothanasia) (Leukemia L-1210 cells; 11.3 mg/kg/day, ip, day 1): 86%
ILS (rate of apothanasia) (Leukemia L-1210 cells; 11.3 mg/kg/day, ip, day 1-3): 143%
ILS (rate of apothanasia) (Leukemia L-1210 cells; 20 mg/kg/day, iv, day 1): 86%
ILS (rate of apothanasia) (Leukemia L-1210 cells; 22.5 mg/kg/day, ip, day 1): 157%
ILS (rate of apothanasia) (Leukemia L-1210 cells; 22.5 mg/kg/day, ip, day 1-3): > 757%
ILS (rate of apothanasia) (Leukemia L-1210 cells; 40 mg/kg/day, iv, day 1): > 757%
ILS (rate of apothanasia) (Leukemia L-1210 cells; 45 mg/kg/day, ip, day 1): > 757%
ILS (rate of apothanasia) (Leukemia L-1210 cells; 45 mg/kg/day, ip, day 1-3): > 757%
ILS (rate of apothanasia) (Leukemia L-1210 cells; 50 mg/kg/day, iv, day 1): 400%
ILS (rate of apothanasia) (Leukemia L-1210 cells; 60 mg/kg/day, ip, day 1): > 757%
ILS (rate of apothanasia) (Leukemia L-1210 cells; 60 mg/kg/day, ip, day 1-3): > 757%
ILS (rate of apothanasia) (Leukemia L-1210 cells; 100 mg/kg/day, po, day 1): 86%
ILS (rate of apothanasia) (Leukemia L-1210 cells; 200 mg/kg/day, po, day 1): 100%
ILS (rate of apothanasia) (Leukemia L-1210 cells; 300 mg/kg/day, po, day 1): 100%
ILS (rate of apothanasia) (Leukemia L-1210 cells; 400 mg/kg/day, po, day 1): 57%
Number of survivals (Leukemia L-1210 cells; 5 mg/kg/day, iv, day 1): 0/7
Number of survivals (Leukemia L-1210 cells; 10 mg/kg/day, iv, day 1): 0/7
Number of survivals (Leukemia L-1210 cells; 11.3 mg/kg/day, ip, day 1): 1/7
Number of survivals (Leukemia L-1210 cells; 11.3 mg/kg/day, ip, day 1-3): 1/7
Number of survivals (Leukemia L-1210 cells; 20 mg/kg/day, iv, day 1): 1/7
Number of survivals (Leukemia L-1210 cells; 22.5 mg/kg/day, ip, day 1): 3/7
Number of survivals (Leukemia L-1210 cells; 22.5 mg/kg/day, ip, day 1-3): 5/7
Number of survivals (Leukemia L-1210 cells; 40 mg/kg/day, iv, day 1): 4/7
Number of survivals (Leukemia L-1210 cells; 45 mg/kg/day, ip, day 1): 7/7
Number of survivals (Leukemia L-1210 cells; 45 mg/kg/day, ip, day 1-3): 5/7
Number of survivals (Leukemia L-1210 cells; 50 mg/kg/day, iv, day 1): 2/7
Number of survivals (Leukemia L-1210 cells; 60 mg/kg/day, ip, day 1): 4/7
Number of survivals (Leukemia L-1210 cells; 60 mg/kg/day, ip, day 1-3): 4/7
Number of survivals (Leukemia L-1210 cells; 100 mg/kg/day, po, day 1): 0/7
Number of survivals (Leukemia L-1210 cells; 200 mg/kg/day, po, day 1): 3/7
Number of survivals (Leukemia L-1210 cells; 300 mg/kg/day, po, day 1): 2/7
Number of survivals (Leukemia L-1210 cells; 400 mg/kg/day, po, day 1): 2/7
ILS (rate of apothanasia) ([2]; 2.23 mg/kg/day, ip, day 1-9): 4%
ILS (rate of apothanasia) ([2]; 4.45 mg/kg/day, ip, day 1-9): 21%
ILS (rate of apothanasia) ([2]; 5 mg/kg/day, ip, day 1): 0%
ILS (rate of apothanasia) ([2]; 6.67 mg/kg/day, ip, day 1-9): 29%
ILS (rate of apothanasia) ([2]; 10 mg/kg/day, ip, day 1): 0%
ILS (rate of apothanasia) ([2]; 15 mg/kg/day, iv, day 1): 35%
ILS (rate of apothanasia) ([2]; 20 mg/kg/day, ip, day 1): 68%
ILS (rate of apothanasia) ([2]; 30 mg/kg/day, iv, day 1): 80%
ILS (rate of apothanasia) ([2]; 40 mg/kg/day, ip, day 1): > 172%
ILS (rate of apothanasia) ([2]; 40 mg/kg/day, iv, day 1): > 200%
ILS (rate of apothanasia) ([2]; 50 mg/kg/day, iv, day 1): > 200%
Number of survivals ([2]; 2.23 mg/kg/day, ip, day 1-9): 0/7
Number of survivals ([2]; 4.45 mg/kg/day, ip, day 1-9): 1/7
Number of survivals ([2]; 5 mg/kg/day, ip, day 1): 0/7
Number of survivals ([2]; 6.67 mg/kg/day, ip, day 1-9): 0/7
Number of survivals ([2]; 10 mg/kg/day, ip, day 1): 0/7
Number of survivals ([2]; 15 mg/kg/day, iv, day 1): 0/7
Number of survivals ([2]; 20 mg/kg/day, ip, day 1): 2/7
Number of survivals ([2]; 30 mg/kg/day, iv, day 1): 1/7
Number of survivals ([2]; 40 mg/kg/day, ip, day 1): 6/7
Number of survivals ([2]; 40 mg/kg/day, iv, day 1): 6/7
Number of survivals ([2]; 50 mg/kg/day, iv, day 1): 5/7
Peripheral leukocyte count after the administration ([3]; 30 mg/kg ip, 2 day): 84.0 % based on the control
Peripheral leukocyte count after the administration ([3]; 30 mg/kg ip, 4 day): 82.2 % based on the control
Peripheral leukocyte count after the administration ([3]; 30 mg/kg ip, 7 day): 85.6 % based on the control
Peripheral leukocyte count after the administration ([3]; 30 mg/kg ip, 10 day): 84.7 % based on the control
Peripheral leukocyte count after the administration ([3]; 30 mg/kg ip, 14 day): 159 % based on the control
Peripheral leukocyte count after the administration ([3]; 60 mg/kg ip, 2 day): 78.2 % based on the control
Peripheral leukocyte count after the administration ([3]; 60 mg/kg ip, 4 day): 60.0 % based on the control
Peripheral leukocyte count after the administration ([3]; 60 mg/kg ip, 7 day): 64.5 % based on the control
Peripheral leukocyte count after the administration ([3]; 60 mg/kg ip, 10 day): 80.0 % based on the control
Peripheral leukocyte count after the administration ([3]; 60 mg/kg ip, 14 day): 100 % based on the control
myelotoxicity ([3]; as compared with Me-CCNU): relatively low myelotoxicity
